Calls of active or inactive are those of the source. No rule for the calls is given here.
Experiments:
Experiment in all cases: potency against CXCR6 with APJ panel – cell-based, beta-arrestin, DiscoveRx, uHTS hits, dose response (AID 624129)
[1] = molecular target: Beta-galactosidase (Escherichia coli) (UniProt Q8VNN2); conditions: CXCR6 beta-arrestin (DiscoveRx) antagonist cell assay, b-galactosidase
[2] = molecular target: Apelin receptor (Homo sapiens) (UniProt P35414); conditions: CXCR6 beta-arrestin (DiscoveRx) antagonist cell assay, APJ
[3] = molecular target: C-X-C chemokine receptor type 6 (Homo sapiens) (UniProt O00574); conditions: CXCR6 beta-arrestin (DiscoveRx) antagonist cell assay; for inhibition: CXCR6, run 1, dose range 2, at 80 µM (top of the series)
C-X-C chemokine receptor type 6 (Homo sapiens), sequence (O00574 whole entry, looked up): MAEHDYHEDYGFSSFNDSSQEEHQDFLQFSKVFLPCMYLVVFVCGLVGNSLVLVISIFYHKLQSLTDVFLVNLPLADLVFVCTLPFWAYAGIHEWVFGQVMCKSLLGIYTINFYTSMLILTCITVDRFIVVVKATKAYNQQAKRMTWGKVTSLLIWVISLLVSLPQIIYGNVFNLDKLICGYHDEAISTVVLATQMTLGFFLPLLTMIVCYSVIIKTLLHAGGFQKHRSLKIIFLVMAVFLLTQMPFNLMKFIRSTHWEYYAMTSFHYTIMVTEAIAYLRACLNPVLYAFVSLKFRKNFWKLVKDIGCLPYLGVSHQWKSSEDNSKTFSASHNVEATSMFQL

[4] = molecular target: C-C chemokine receptor type 6 (Homo sapiens) (UniProt P51684); conditions: CXCR6 beta-arrestin (DiscoveRx) antagonist cell assay
[5] = dose range 1, mean IC50 across replicates
[6] = CXCR6, dose range 1, mean IC50 across replicates
[7] = CCR6, dose range 1, mean IC50 across replicates

Beta-galactosidase (Escherichia coli), sequence (Q8VNN2 whole entry, looked up): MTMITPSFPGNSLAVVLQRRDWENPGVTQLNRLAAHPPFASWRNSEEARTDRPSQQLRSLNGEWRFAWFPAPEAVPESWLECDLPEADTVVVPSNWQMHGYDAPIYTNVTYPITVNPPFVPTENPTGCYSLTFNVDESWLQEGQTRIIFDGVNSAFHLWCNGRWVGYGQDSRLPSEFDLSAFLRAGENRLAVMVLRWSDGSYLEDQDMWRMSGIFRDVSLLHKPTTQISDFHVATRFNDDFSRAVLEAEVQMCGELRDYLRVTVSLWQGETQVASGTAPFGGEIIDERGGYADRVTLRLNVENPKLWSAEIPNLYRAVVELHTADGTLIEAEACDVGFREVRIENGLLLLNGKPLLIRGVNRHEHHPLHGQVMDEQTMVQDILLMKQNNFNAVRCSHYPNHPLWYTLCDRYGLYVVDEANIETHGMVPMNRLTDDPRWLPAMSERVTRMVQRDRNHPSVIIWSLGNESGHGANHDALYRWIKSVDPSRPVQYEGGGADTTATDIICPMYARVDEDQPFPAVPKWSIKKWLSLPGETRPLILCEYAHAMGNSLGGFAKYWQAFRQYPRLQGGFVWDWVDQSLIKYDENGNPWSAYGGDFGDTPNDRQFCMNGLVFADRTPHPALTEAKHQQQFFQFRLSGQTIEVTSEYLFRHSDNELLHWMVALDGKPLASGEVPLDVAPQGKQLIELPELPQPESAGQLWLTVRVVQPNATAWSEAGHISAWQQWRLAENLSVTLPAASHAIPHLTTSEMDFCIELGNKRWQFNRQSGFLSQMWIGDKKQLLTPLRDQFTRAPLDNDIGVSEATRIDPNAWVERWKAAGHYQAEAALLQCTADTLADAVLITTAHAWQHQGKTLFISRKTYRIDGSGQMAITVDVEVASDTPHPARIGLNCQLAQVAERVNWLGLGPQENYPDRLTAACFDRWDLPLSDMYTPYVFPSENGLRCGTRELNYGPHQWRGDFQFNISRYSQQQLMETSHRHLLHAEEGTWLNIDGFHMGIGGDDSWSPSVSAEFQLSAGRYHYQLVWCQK

Row | SMILES | IC50 ([1]; dose range 1) | IC50 [1, 5] | IC50 ([2]; dose range 1) | IC50 [2, 5] | IC50 ([2]; run 2, dose range 1) | IC50 ([2]; run 3, dose range 1) | IC50 ([3]; CXCR6, dose range 1) | IC50 [3, 6] | IC50 ([3]; CXCR6, run 1, dose range 2) | IC50 ([3]; CXCR6, run 2, dose range 1) | IC50 ([3]; CXCR6, run 2, dose range 2) | IC50 ([4]; CCR6, dose range 1) | IC50 [4, 7] | IC50 ([4]; CCR6, run 2, dose range 1) | inhibition [3]
1 | C/C(=N\NC(=O)Cn1c(-c2ccccn2)nc2ccccc21)c1ccccc1 | 34 µM | 34 µM | 23.9 µM | 21.3 µM | 16.1 µM | 23.9 µM | inactive | 18.4 µM | 9.71 µM | 29.4 µM | 8.43 µM | 13.7 µM | 16.2 µM | 18.7 µM | 
2 | C=C1C(=O)O[C@@H]2C[C@@H](C)[C@@H]3C=CC(=O)[C@@]3(C)[C@@H](OC(=O)CC(=O)O[C@H]3[C@@H]4C(=C)C(=O)O[C@@H]4C[C@@H](C)[C@@H]4C=CC(=O)[C@]43C)[C@H]12 | > 80 µM (inactive) | > 80 µM | 4.62 µM | 4.97 µM | 5.28 µM | 5.02 µM | 4.65 µM | 3.94 µM | 3.8 µM | 4.03 µM | 3.28 µM | 3.11 µM | 3.35 µM | 3.59 µM | 
3 | CCC(=O)OCCNc1cc(Sc2nc3ccccc3s2)c2nonc2c1[N+](=O)[O-] | > 80 µM (inactive) | > 80 µM | 32.9 µM | 28 µM | 23.1 µM | > 80 µM | 8.94 µM | 8.4 µM | 10 µM | 8.87 µM | 5.77 µM | 8.93 µM | 8.72 µM | 8.5 µM | 
4 | COc1cc(/C=C/c2ccc3c(Br)cc(Br)c(O)c3n2)ccc1O | > 80 µM (inactive) | > 80 µM | 20.3 µM | 23.7 µM | 18.8 µM | 32.2 µM | inactive | 12.5 µM | 8.69 µM | 11.8 µM | 12.5 µM | 12.6 µM | 12.1 µM | 11.6 µM | 
5 | O=C1C(Cc2ccccc2)Nc2ncnc(N3CCN(c4ccccc4)CC3)c2N1Cc1ccc(Cl)cc1 (configuration not stated) | > 80 µM (inactive) | > 80 µM | inactive | 20.2 µM | 5.81 µM | 53.2 µM | 2.01 µM | 1.94 µM | 1.77 µM | 2.04 µM | 1.94 µM | 3.28 µM | 2.67 µM | 2.06 µM | 
6 | CCOC(=O)c1c(C)oc2c1c(C=NCc1ccccn1)c(O)c1ccccc12 | > 80 µM (inactive) | > 80 µM | 12.3 µM | 12.3 µM | > 80 µM | > 80 µM | 4.14 µM | 3.58 µM | 1.54 µM | 6.74 µM | 1.9 µM | 7.01 µM | 5.66 µM | 4.3 µM | 
7 | CCCC(=O)OCCNc1cc(Sc2nc3ccccc3[nH]2)c2nonc2c1[N+](=O)[O-] | inactive | 50.4 µM | 12.4 µM | 9.49 µM | 5.87 µM | 10.2 µM | 5.82 µM | 6.71 µM | 7.57 µM | 6.36 µM | 7.1 µM | 5.26 µM | 5.55 µM | 5.83 µM | 
8 | CC(C)(C)C(=O)NC(=S)NNC(=O)c1sc2ccccc2c1Cl | > 80 µM (inactive) | > 80 µM | 24.4 µM | 18.1 µM | 15.2 µM | 14.7 µM | > 80 µM (inactive) | > 80 µM |  | > 80 µM |  |  | 34 µM | 34 µM | 63.6%
9 | CCCC(=O)OCCNc1cc(Sc2nccn2C)c2nonc2c1[N+](=O)[O-] | > 80 µM (inactive) | > 80 µM | 8.29 µM | 6.22 µM | 4.43 µM | 5.96 µM | 4.86 µM | 5.03 µM | 5.61 µM | 5.05 µM | 4.59 µM | 4.87 µM | 4.62 µM | 4.38 µM | 
10 | N=C1S/C(=C\c2ccco2)C(=O)N1c1nccs1 | > 80 µM (inactive) | > 80 µM | 8.43 µM | 10.5 µM | 12.4 µM | 10.6 µM | 10.4 µM | 8.97 µM | 6.4 µM | 9.6 µM | 9.45 µM | 8.13 µM | 8.52 µM | 8.91 µM | 
11 | O=C(N/N=C(\c1ccccc1)c1cccnc1)c1cccc(F)c1 | > 80 µM (inactive) | > 80 µM | 4.18 µM | 4.46 µM | 5.15 µM | 4.05 µM | 4.5 µM | 4.01 µM | 3.07 µM | 5.13 µM | 3.34 µM | 4.35 µM | 4.64 µM | 4.93 µM | 
12 | CCOC(=O)c1c(SCCN2CCCC2)n(-c2ccccc2)c(=S)n(-c2ccccc2)c1=O | > 80 µM (inactive) | > 80 µM |  | > 80 µM | > 80 µM | > 80 µM | > 80 µM (inactive) | > 80 µM |  | > 80 µM |  |  | > 80 µM | > 80 µM | -8.52%
13 | CCCCCCN1C=C/C(=C\C=C(C#N)C#N)c2ccccc21 | > 80 µM (inactive) | > 80 µM | 26.9 µM | 35.4 µM | 52.3 µM | 27.1 µM | inactive | 42.5 µM |  | 43.9 µM |  | 23.4 µM | 19.9 µM | 16.3 µM | 158%
14 | O=C(Nc1nc2c(F)cc(F)cc2s1)c1ccccn1 | > 80 µM (inactive) | > 80 µM | 0.798 µM | 1.59 µM | 2.38 µM | > 80 µM | 1.4 µM | 1.11 µM | 0.803 µM | 1.23 µM | 1 µM | 0.66 µM | 1.03 µM | 1.4 µM | 
15 | O=C(C#Cc1ccccc1)c1ccco1 | > 80 µM (inactive) | > 80 µM | 16.1 µM | 14 µM | 13.1 µM | 12.8 µM | 11.8 µM | 9.68 µM | 9.59 µM | 9.18 µM | 8.16 µM | 9.49 µM | 9.89 µM | 10.3 µM | 
16 | CCOc1cc(Br)c(Br)c(C=Nc2ccc(NC(C)=O)cc2)c1O | > 80 µM (inactive) | > 80 µM | 45.8 µM | 45.8 µM | > 80 µM | > 80 µM | inactive | 19.8 µM | 5.38 µM | > 80 µM | 14.1 µM |  | 40.4 µM | 40.4 µM | 

Source: PubChem BioAssay AID624129 (Sanford-Burnham Center for Chemical Genomics, 2012)
